We go through 7 molecules from ChEMBL document CHEMBL5370585, “Exploration and Biological Evaluation of 1,3-Diamino-7H-pyrrol[3,2-f]quinazoline Derivatives as Dihydrofolate Reductase Inhibitors” (J Med Chem, 2023).

Assay [1] relates to HGC-27. Nature of the assay: Cytotoxicity against human HGC-27 cells measured after 72 hrs by MTT assay. The format is functional, cell-based. The note with it: HGC-27, 72 h.
The test system of assay [2] is Enterococcus faecalis. Description: Antibacterial activity against Enterococcus faecalis ATCC 29212 incubated for 16 to 18 hrs by CLSI based broth dilution method. The format is functional. The settings on record: time 16-18 hrs. Background: Dilution methods test growth across graded concentrations, often in twofold steps.
The test system of assay [3] is Staphylococcus aureus. Nature of the assay: Antibacterial activity against methicillin-resistant Staphylococcus aureus ATCC 43300 incubated for 16 to 18 hrs by CLSI based broth dilution method. The format is functional. The note with it: time 16-18 hrs.
In assay [4] the test system is Escherichia coli. Description: Antibacterial activity against Escherichia coli ATCC 25922 incubated for 16 to 18 hrs by CLSI based broth dilution method. The format is functional. The note with it: time 16-18 hrs.
The subject of assay [5] is HepG2. Description: Cytotoxicity against human HepG2 cells measured after 72 hrs by MTT assay. The note with it: HepG2, 72 h. The format is functional, cell-based. (In general: Tetrazolium dyes change colour on reduction, which living cells bring about.)
Assay [6] relates to Staphylococcus epidermidis. Description: Antibacterial activity against Staphylococcus epidermidis ATCC 12228 incubated for 16 to 18 hrs by CLSI based broth dilution method. The format is functional. The settings on record: time 16-18 hrs.
For assay [7], the system named is HCT-116. Description: Cytotoxicity against human HCT-116 cells measured after 72 hrs by MTT assay. The format is functional, cell-based. The settings on record: HCT-116, 72 h.
Assay [8] has as its system MCF7. Nature of the assay: Cytotoxicity against human MCF7 cells measured after 72 hrs by MTT assay. The format is functional, cell-based. The settings on record: MCF7, 72 h.
For assay [9], the system named is Staphylococcus aureus. Nature of the assay: Antibacterial activity against Staphylococcus aureus ATCC 29213 incubated for 16 to 18 hrs by CLSI based broth dilution method. The format is functional. The settings on record: time 16-18 hrs.
Assay [10] concerns Acinetobacter baumannii. Description: Antibacterial activity against Acinetobacter baumannii ATCC 19606 incubated for 16 to 18 hrs by CLSI based broth dilution method. The format is functional. The settings on record: time 16-18 hrs.
Assay [11] deals with T1, Dihydrofolate reductase (Homo sapiens) (UniProt P00374).
T1 sequence (whole entry): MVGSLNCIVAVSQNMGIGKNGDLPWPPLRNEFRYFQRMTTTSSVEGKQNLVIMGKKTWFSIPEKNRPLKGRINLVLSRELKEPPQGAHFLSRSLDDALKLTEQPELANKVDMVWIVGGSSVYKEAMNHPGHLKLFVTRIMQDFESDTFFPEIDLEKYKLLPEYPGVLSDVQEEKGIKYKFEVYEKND
Description: Inhibition of human DHFR at 1 uM incubated for 10 mins in presence of NADPH by colorimetry based analysis relative to control.

Molecules are shown by their SMILES. Converted amounts (≈) assume the structure as drawn.

In general, IC50 refers to the point on the concentration scale where inhibition reaches its midpoint. Low readings indicate greater potency in that assay, high ones weaker potency in that assay. A word on the MIC: it is the lowest concentration that inhibits growth of the organism. A low value points to a more susceptible organism. For orientation: inhibition means the relative decrease from the control value, in per cent. On to `Nc1nc(N)c2c(ccc3c2ccn3Cc2ccc3ncsc3c2)n1`, for which the IC50 in assay [1] is 310 nM; in assay [5], 1170 nM; in assay [7], greater than 10000 nM; in [8] it was 3870 nM. In addition, the minimum inhibitory concentration (MIC) in [2] was 0.25 µg/mL (≈ 0.722 µM); in [3], 0.125 µg/mL (≈ 0.361 µM); in assay [4], 0.25 µg/mL (≈ 0.722 µM); in assay [6], no more than 0.004 µg/mL; in assay [9], 0.25 µg/mL (≈ 0.722 µM); in assay [10], 16 µg/mL (≈ 46.2 µM). In addition, the inhibition in assay [11] is 80.6%.
For the molecule `Nc1nc(N)c2c(ccc3c2ccn3Cc2ccc3occc3c2)n1`, the IC50 in [1] is 410 nM; in assay [5], 1250 nM; in assay [7], 2460 nM; in assay [8], 1000 nM. For the same molecule, the MIC in [2] was 0.03 µg/mL (≈ 0.0911 µM); in [3], 0.004 µg/mL (≈ 0.0121 µM); in [4], 0.125 µg/mL (≈ 0.38 µM); in assay [6], no more than 0.004 µg/mL; in assay [9], 0.06 µg/mL (≈ 0.182 µM); in assay [10], 1 µg/mL (≈ 3.04 µM). Further, in assay [11], the inhibition worked out at 64.5%.
As for `Nc1nc(N)c2c(ccc3c2ccn3Cc2nc3ccc(C(=O)O)cc3s2)n1`, the IC50 in assay [1] was found to be 890 nM; in assay [5] it was 2190 nM; in [7], 1600 nM; in assay [8] it was 8120 nM. Besides, the minimum inhibitory concentration (MIC) in [2] was greater than 8 µg/mL; in assay [3], greater than 8 µg/mL; in assay [4] it was greater than 8 µg/mL; in [6] it was 0.5 µg/mL (≈ 1.28 µM); in [9], 8 µg/mL (≈ 20.5 µM); in assay [10], greater than 32 µg/mL. The inhibition in [11] was found to be 80.6%.
With `Cc1cc2c3c(N)nc(N)nc3ccc2n1Cc1cccc2scnc12`, the half-inhibitory concentration (IC50) in assay [1] was 4500 nM; in assay [5], 250 nM; in [7] it was greater than 10000 nM; in assay [8], 450 nM. Moreover, the MIC in assay [2] is 2 µg/mL (≈ 5.55 µM); in assay [3] it was 1 µg/mL (≈ 2.77 µM); in assay [4], greater than 8 µg/mL; in assay [6], no more than 0.004 µg/mL; in [9], 1 µg/mL (≈ 2.77 µM); in [10], 8 µg/mL (≈ 22.2 µM). For the same molecule, the inhibition in assay [11] was 99.4%.
For the molecule `Nc1nc(N)c2c(ccc3c2ccn3Cc2ccc3sccc3c2)n1`, the concentration for half-maximal inhibition (IC50) stood at 560 nM in [1], 530 nM in [5], 8800 nM in [7] and 510 nM in assay [8]. Besides, the minimum inhibitory concentration (MIC) in assay [2] was 0.06 µg/mL (≈ 0.174 µM); in assay [3], 0.03 µg/mL (≈ 0.0868 µM); in [4], 0.25 µg/mL (≈ 0.724 µM); in assay [6], no more than 0.004 µg/mL; in assay [9], 0.06 µg/mL (≈ 0.174 µM); in [10], 4 µg/mL (≈ 11.6 µM). Also, the inhibition in assay [11] came to 87%.
On to `Nc1nc(N)c2c(ccc3c2ccn3Cc2ccc3ocnc3c2)n1`, for which the concentration for half-maximal inhibition (IC50) in assay [1] is 3540 nM; in [5] it was 3650 nM; in assay [7], greater than 10000 nM; in assay [8], 5870 nM. For the same molecule, the minimum inhibitory concentration (MIC) in [2] is 4 µg/mL (≈ 12.1 µM); in assay [3], 2 µg/mL (≈ 6.05 µM); in [4] it was 2 µg/mL (≈ 6.05 µM); in assay [6], no more than 0.004 µg/mL; in assay [9] it was 8 µg/mL (≈ 24.2 µM); in assay [10], greater than 32 µg/mL. In assay [11], the inhibition is 29.1%.
With `Nc1nc(N)c2c(ccc3c2ccn3Cc2cc3ccccc3s2)n1`, the IC50 in [1] was 510 nM; in [5] it was 270 nM; in assay [7], 1940 nM; in assay [8] it was 910 nM. Also, the MIC in [2] is 0.125 µg/mL (≈ 0.362 µM); in assay [3], 0.125 µg/mL (≈ 0.362 µM); in [4], 0.25 µg/mL (≈ 0.724 µM); in assay [6] it was no more than 0.004 µg/mL; in assay [9], 0.125 µg/mL (≈ 0.362 µM); in assay [10] it was 32 µg/mL (≈ 92.6 µM). Moreover, the inhibition in [11] was found to be 70.9%.
